In the NIST ThermoML archive (doi:10.1016/j.jct.2012.02.028):
Numbers after ± are expanded uncertainties.

Details: 101.33 kPa, Crystal, Vacuum adiabatic calorimetry

In the case of O=C([O-])[O-].[Zn+2] [zinc(II) carbonate], the molar entropy (5 K) is reported as 0.00258 J/K/mol, the molar entropy (10 K) is reported as 0.02006 ± 0.015 J/K/mol and the molar entropy (15 K) is reported as 0.07123 ± 0.016 J/K/mol. It also gave a molar entropy (20 K) of 0.1881 ± 0.017 J/K/mol, a molar entropy (25 K) of 0.41 ± 0.018 J/K/mol and a molar entropy (30 K) of 0.7694 ± 0.062 J/K/mol. The molar entropy (35 K) was 1.284 ± 0.064 J/K/mol, the molar entropy (40 K) was 1.959 ± 0.066 J/K/mol and the molar entropy (45 K) was 2.788 ± 0.068 J/K/mol. For the same compound, the molar entropy (50 K) was 3.759 ± 0.071 J/K/mol, the molar entropy (55 K) was 4.862 ± 0.075 J/K/mol and the molar entropy (60 K) was 6.081 ± 0.078 J/K/mol. It also gave a molar entropy (65 K) of 7.403 ± 0.082 J/K/mol, a molar entropy (70 K) of 8.815 ± 0.086 J/K/mol and a molar entropy (75 K) of 10.3 ± 0.09 J/K/mol. For the same compound, the molar entropy (80 K) was 11.85 ± 0.1 J/K/mol, the molar entropy (85 K) was 13.45 ± 0.1 J/K/mol and the molar entropy (90 K) was 15.1 ± 0.32 J/K/mol. The molar entropy (95 K) was 16.78 ± 0.33 J/K/mol, the molar entropy (100 K) was 18.49 ± 0.33 J/K/mol and the molar entropy (105 K) was 20.21 ± 0.33 J/K/mol. The molar entropy (110 K) was 21.95 ± 0.33 J/K/mol, the molar entropy (115 K) was 23.7 ± 0.34 J/K/mol and the molar entropy (120 K) was 25.45 ± 0.34 J/K/mol. For the same compound, the molar entropy (130 K) was 28.95 ± 0.34 J/K/mol, the molar entropy (140 K) was 32.44 ± 0.35 J/K/mol and the molar entropy (150 K) was 35.9 ± 0.35 J/K/mol. For the same compound, the molar entropy (160 K) was 39.32 ± 0.36 J/K/mol, the molar entropy (170 K) was 42.69 ± 0.36 J/K/mol and the molar entropy (180 K) was 46.02 ± 0.37 J/K/mol. For the same compound, the molar entropy (190 K) was 49.28 ± 0.37 J/K/mol, the molar entropy (200 K) was 52.5 ± 0.38 J/K/mol and the molar entropy (210 K) was 55.65 ± 0.38 J/K/mol. For the same compound, the molar entropy (220 K) was 58.75 ± 0.39 J/K/mol, the molar entropy (230 K) was 61.8 ± 0.39 J/K/mol and the molar entropy (240 K) was 64.79 ± 0.4 J/K/mol. It also gave a molar entropy (250 K) of 67.73 ± 0.4 J/K/mol, a molar entropy (260 K) of 70.62 ± 0.41 J/K/mol and a molar entropy (270 K) of 73.48 ± 0.41 J/K/mol. It also gave a molar entropy (273.15 K) of 74.37 ± 0.41 J/K/mol, a molar entropy (280 K) of 76.29 ± 0.41 J/K/mol and a molar entropy (290 K) of 79.06 ± 0.42 J/K/mol. It also gave a molar entropy (298.15 K) of 81.28 ± 0.42 J/K/mol, a molar entropy (300 K) of 81.78 ± 0.42 J/K/mol and a molar entropy (310 K) of 84.45 ± 0.43 J/K/mol. It also gave a molar entropy (320 K) of 87.09 ± 0.43 J/K/mol.
